In ChEMBL document CHEMBL4184182, “Studies on interactions of carbazole derivatives with DNA, cell image, and cytotoxicity” (Bioorg Med Chem, 2018):
Values belong to the compound of their own block, whether it stands above or below them. Calls of active or inactive are those of the source. The calls are words filed in the database; no cut-off is given here.

How the values were obtained:
Calf thymus DNA [1] = experiment: Binding affinity to calf thymus DNA assessed as hyperchromicity at 10 uM after 5 mins by UV-Visible absorbance titration method; format: nucleic-acid assay; details: Bos taurus
dsDNA [2] = experiment: Binding affinity to 26-mer duplex DNA (unknown origin) assessed as hyperchromicity at 10 uM after 5 mins by UV-Visible absorbance titration method; format: nucleic-acid assay
Quadruplex DNA [3] = experiment: Binding affinity to c-Kit G-quadruplex DNA (unknown origin) assessed as hyperchromicity at 10 uM after 5 mins by UV-Visible absorbance titration method; format: nucleic-acid assay
Quadruplex DNA [4] = experiment: Binding affinity to c-Myc G-quadruplex DNA (unknown origin) assessed as hyperchromicity at 10 uM after 5 mins by UV-Visible absorbance titration method; format: nucleic-acid assay
Quadruplex DNA [5] = experiment: Binding affinity to human telomeric G-quadruplex DNA assessed as hyperchromicity at 10 uM after 5 mins in presence of sodium ion by UV-Visible absorbance titration method; format: nucleic-acid assay
Calf thymus DNA [6] = experiment: Binding affinity to calf thymus DNA assessed as absorption maximum at 5 uM after 5 mins by fluorescence titration method (reference value: 453 nanometer); format: nucleic-acid assay; details: Bos taurus
Quadruplex DNA [7] = experiment: Binding affinity to human telomeric G-quadruplex DNA assessed as absorption maximum at 5 uM after 5 mins in presence of potassium ion by fluorescence titration method (reference value: 453 nanometer); format: nucleic-acid assay
dsDNA [8] = experiment: Binding affinity to 26-mer duplex DNA (unknown origin) assessed as emission maximum at 5 uM after 5 mins by fluorescence titration method (reference value: 584 nanometer); format: nucleic-acid assay
Quadruplex DNA [9] = experiment: Binding affinity to c-Kit G-quadruplex DNA (unknown origin) assessed as emission maximum at 5 uM after 5 mins by fluorescence titration method (reference value: 584 nanometer); format: nucleic-acid assay
Quadruplex DNA [10] = experiment: Binding affinity to Bcl2 G-quadruplex DNA (unknown origin) assessed as emission maximum at 5 uM after 5 mins by fluorescence titration method (reference value: 584 nanometer); format: nucleic-acid assay
Quadruplex DNA [11] = experiment: Binding affinity to human telomeric G-quadruplex DNA assessed as emission maximum at 5 uM after 5 mins in presence of sodium ion by fluorescence titration method (reference value: 584 nanometer); format: nucleic-acid assay
Quadruplex DNA [12] = experiment: Binding affinity to c-Myc G-quadruplex DNA (unknown origin) assessed as compound fluorescence life time at 5 uM after 5 mins by fluorescence titration method (reference value: 0.192 nanoseconds); format: nucleic-acid assay
Quadruplex DNA [13] = experiment: Binding affinity to human telomeric G-quadruplex DNA assessed as compound fluorescence life time at 5 uM after 5 mins in presence of potassium ion by fluorescence titration method (reference value: 0.192 nanoseconds); format: nucleic-acid assay
HepG2 = experiment: Induction of morphological changes in human HepG2 cells assessed as cellular clumping at 5 uM after 24 hrs; format: functional, cell-based
[14] = Drug uptake in DNase-1 treated human HepG2 cell nucleus at 3 uM after 30 mins by H33258.staining based confocal microscopic method; format: ADME, subcellular; details: hepg2, 0.5 h
[15] = Drug uptake in RNase-A treated human HepG2 cell nucleus at 3 uM after 30 mins by H33258.staining based confocal microscopic method; format: ADME, subcellular; details: hepg2, 0.5 h
[16] = Drug uptake in RNase-A treated human HepG2 cell cytoplasm at 3 uM after 30 mins by H33258.staining based confocal microscopic method; format: ADME, subcellular; details: hepg2, 0.5 h
Quadruplex DNA [17] = experiment: Binding affinity to c-Kit G-quadruplex DNA (unknown origin) assessed as hyperchromicity at 15 uM after 5 mins by UV-Visible absorbance titration method; format: nucleic-acid assay
Quadruplex DNA [18] = experiment: Binding affinity to Bcl2 G-quadruplex DNA (unknown origin) assessed as hyperchromicity at 15 uM after 5 mins by UV-Visible absorbance titration method; format: nucleic-acid assay
Calf thymus DNA [19] = experiment: Binding affinity to calf thymus DNA assessed as red shift at 15 uM after 5 mins by UV-Visible absorbance titration method; format: nucleic-acid assay; details: Bos taurus
dsDNA [20] = experiment: Binding affinity to 26-mer duplex DNA (unknown origin) assessed as red shift at 15 uM after 5 mins by UV-Visible absorbance titration method; format: nucleic-acid assay
Quadruplex DNA [21] = experiment: Binding affinity to Bcl2 G-quadruplex DNA (unknown origin) assessed as red shift at 15 uM after 5 mins by UV-Visible absorbance titration method; format: nucleic-acid assay
Calf thymus DNA [22] = experiment: Binding affinity to calf thymus DNA assessed as absorption maximum at 5 uM after 5 mins by fluorescence titration method (reference value: 405 nanometer); format: nucleic-acid assay; details: Bos taurus
dsDNA [23] = experiment: Binding affinity to 26-mer duplex DNA (unknown origin) assessed as absorption maximum at 5 uM after 5 mins by fluorescence titration method (reference value: 405 nanometer); format: nucleic-acid assay
Quadruplex DNA [24] = experiment: Binding affinity to c-Kit G-quadruplex DNA (unknown origin) assessed as absorption maximum at 5 uM after 5 mins by fluorescence titration method (reference value: 405 nanometer); format: nucleic-acid assay
Quadruplex DNA [25] = experiment: Binding affinity to Bcl2 G-quadruplex DNA (unknown origin) assessed as absorption maximum at 5 uM after 5 mins by fluorescence titration method (reference value: 405 nanometer); format: nucleic-acid assay
Quadruplex DNA [26] = experiment: Binding affinity to human telomeric G-quadruplex DNA assessed as absorption maximum at 5 uM after 5 mins in presence of sodium ion by fluorescence titration method (reference value: 405 nanometer); format: nucleic-acid assay
dsDNA [27] = experiment: Binding affinity to 26-mer duplex DNA (unknown origin) assessed as emission maximum at 5 uM after 5 mins by fluorescence titration method (reference value: 559 nanometer); format: nucleic-acid assay
Quadruplex DNA [28] = experiment: Binding affinity to Bcl2 G-quadruplex DNA (unknown origin) assessed as emission maximum at 5 uM after 5 mins by fluorescence titration method (reference value: 559 nanometer); format: nucleic-acid assay
Quadruplex DNA [29] = experiment: Binding affinity to c-Myc G-quadruplex DNA (unknown origin) assessed as emission maximum at 5 uM after 5 mins by fluorescence titration method (reference value: 559 nanometer); format: nucleic-acid assay
Quadruplex DNA [30] = experiment: Binding affinity to human telomeric G-quadruplex DNA assessed as emission maximum at 5 uM after 5 mins in presence of potassium ion by fluorescence titration method (reference value: 559 nanometer); format: nucleic-acid assay
Quadruplex DNA [31] = experiment: Binding affinity to human telomeric G-quadruplex DNA assessed as emission maximum at 5 uM after 5 mins in presence of sodium ion by fluorescence titration method (reference value: 559 nanometer); format: nucleic-acid assay
dsDNA [32] = experiment: Binding affinity to 26-mer duplex DNA (unknown origin) assessed as compound fluorescence life time at 5 uM after 5 mins by fluorescence titration method (reference value: 3.626 nanoseconds); format: nucleic-acid assay
Quadruplex DNA [33] = experiment: Binding affinity to c-Kit G-quadruplex DNA (unknown origin) assessed as compound fluorescence life time at 5 uM after 5 mins by fluorescence titration method (reference value: 3.626 nanoseconds); format: nucleic-acid assay
Quadruplex DNA [34] = experiment: Binding affinity to c-Myc G-quadruplex DNA (unknown origin) assessed as enhanced fluorescence time at 5 uM after 5 mins by fluorescence titration assay relative to control; format: nucleic-acid assay
[35] = Drug uptake in human HepG2 cell cytoplasm at 10 uM after 2.5 hrs by confocal microscopic method; format: ADME, subcellular; details: hepg2, 2.5 h
[36] = Drug uptake in fixed human HepG2 cell nucleus at 10 uM after 2.5 hrs by confocal microscopic method; format: ADME, subcellular; details: hepg2, 2.5 h
[37] = Drug uptake in DNase-1 treated human HepG2 cell nucleus at 10 uM after 2.5 hrs by confocal microscopic method; format: ADME, subcellular; details: hepg2, 2.5 h
[38] = Drug uptake in RNase-A treated human HepG2 cell cytoplasm at 10 uM after 2.5 hrs by confocal microscopic method; format: ADME, subcellular; details: hepg2, 2.5 h

Activity (Calf thymus DNA [1]): 40.1%
Activity (dsDNA [2]): 24.6%
Activity (Quadruplex DNA [3]): 55.1%
Activity (Quadruplex DNA [4]): 55.6%
Activity (Quadruplex DNA [5]): 48.4%
Activity (Calf thymus DNA [6]): 477 nm
Activity (Quadruplex DNA [7]): 474 nm
Activity (dsDNA [8]): 568 nm
Activity (Quadruplex DNA [9]): 588 nm
Activity (Quadruplex DNA [10]): 586 nm
Activity (Quadruplex DNA [11]): 578 nm
Time (Quadruplex DNA [12]): 1.68 nanoseconds
Time (Quadruplex DNA [13]): 2.09 nanoseconds
Drug uptake [14]: Not Active
Drug uptake [15]: Active
Drug uptake [16]: Active
SMILES: CCn1c2ccccc2c2cc(/C=C/c3sc4ccccc4[n+]3CC)ccc21.[I-]
Activity (HepG2): Active

Activity (Quadruplex DNA [17]): 39.9%
Activity (Quadruplex DNA [18]): 42.7%
Activity (Calf thymus DNA [19]): 23 nm
Activity (dsDNA [20]): 17 nm
Activity (Quadruplex DNA [21]): 29 nm
Activity (Calf thymus DNA [22]): 428 nm
Activity (dsDNA [23]): 422 nm
Activity (Quadruplex DNA [24]): 432 nm
Activity (Quadruplex DNA [25]): 434 nm
Activity (Quadruplex DNA [26]): 422 nm
Activity (dsDNA [27]): 541 nm
Activity (Quadruplex DNA [28]): 541 nm
Activity (Quadruplex DNA [29]): 547 nm
Activity (Quadruplex DNA [30]): 545 nm
Activity (Quadruplex DNA [31]): 545 nm
Time (dsDNA [32]): 2.43 nanoseconds
Time (Quadruplex DNA [33]): 7.04 nanoseconds
fold change (FC) (Quadruplex DNA [34]): 11.2 to 20.6
Drug uptake [35]: Active
Drug uptake [36]: Active
Drug uptake [37]: Not Active
Drug uptake [38]: Not Active
SMILES: CCn1c2ccccc2c2cc(/C=C(\C#N)c3ccc[n+](C)c3)ccc21.[I-]
